Where two headings read alike, the source gives them in different places.
Columns and labels:
[1] = tested on: DEN+HFD+CHOL induced NASH model; assay: DEN+HFD+CHOL induced NASH model in rats; type: in vivo, male SD rats
Description: Therapeutic efficacy of FXR compounds was evaluated in DEN+HFD+CHOL induced NASH model in male SD rats. Newborn male rats received DEN injection at Week 2 after birth to generate NASH model. Negative control animals (Group 1, n=10) received no DEN injection. At Week 4, 50 rats that received DEN injections started HFD+CHOL diet (60 kcal % Fat+1.25% Cholesterol+0.5% cholate) for 8 weeks, while negative control animals were still on normal diet. At Week 5, DEN treated rats were randomly assigned into 5 groups (Group 2-6) based on body weight. Disease Group (Group 2, n=10), received no treatment; OCA group (Group 3, n=10) received OCA at 30 mg/kg. Group 4-6 (n=10 each) received Compound 1 at low (3 mg/kg), […], and […]. OCA and Compound 1 were given PO QD, for 7 weeks. On the day after last dose, all animals were euthanized and liver tissues were fixed with formalin for pathological evaluation.

[2] = Mouse pharmacokinetic studies (IV and PO); type: in vivo, Male CD-1 mice
Description: Mouse Pharmacokinetic Studies
Typical PK study procedure. For i.v. PK studies, a group of three fasted Male CD-1 mice were dosed with the compound (2.0 mg/kg, 0.50 mg/mL in 5% solutol in saline, clear solution), and 0.02 mL blood was collected at 0.0830, 0.250, 0.500, 1.00, 2.00, 4.00, 8.00, 24.0 h. For PO PK studies, a group of three fasted Male CD-1 mice were dosed with the compound (10 mg/kg, 1 mg/mL in 5% solutol in saline, clear solution), and 0.02 mL blood was collected at 0.250, 0.500, 1.00, 2.00, 4.00, 6.00, 8.00, 24.0 h. The blood was collected into EP tubes (containing EDTA K20.85-1.15 mg) and centrifuged at 3,000 g or 3,200 g at 4° C. for 10 min) and plasma was isolated and divided into two vials. One was used for bioanalysis and one was kept as backup. The samples were kept at −60° C. or below, until being analyzed by LC MS/MS. The samples were analyzed with AB SCIEX INSTRUMENTS LC-MS/MS AU-Triple Quad 6500 Plus and data were processed with Phoenix WinNonlin 6.3 (IV-noncompartmental model and PO-noncompartmental model).

[3] = tested on: STZ+DEN+HFD induced NASH model; assay: STZ+DEN+HFD induced NASH model in mice; type: in vivo, male C57BL/6 mice
Description: Therapeutic efficacy of FXR compounds was evaluated in STZ+DEN+HFD induced NASH model in male C57BL/6 mice. Briefly, newborn male C57BL/6 mice were injected with streptozocin (STZ) at Week 2 to introduce diabetes and diethylnitrosamine (DEN) at Week 4 to promote liver fibrosis. Mice receiving neither STZ nor DEN were used as negative control (Group 1, n=12) and were fed with normal diet. At Week 6, 60 diabetic mice were selected (blood glucose>12 mmol/L after 6 h of fasting) and were fed with high fat diet (HFD, diet that contains 60 kcal % fat). After one week on HFD, animals were randomly assigned into 5 groups based on body weight: Group 2 (n=12), disease model group, no compound treatment; Group 3 (n=10), positive control group, treated with OCA (30 mg/kg); Group 4 (n=12), treated with Compound 1 (3 mg/kg); Group 5 (n=12), treated with Compound 1 (10 mg/kg); Group 6 (n=12), treated with Compound 1 (30 mg/kg). OCA and Compounds 1 were PO QD, for 7 weeks. On the day after last dose, all animals were euthanized and liver tissues were fixed with formalin for pathological evaluation.

[4] = male, CD-1, plasma, PO 10 mg/kg

PO F ([2]; PO 10 mg/kg vs IV 2.0 mg/kg): 33% | Vd ([2]; male, CD-1, plasma, IV 2.0 mg/kg): 1.75 L/kg | AUC(0-t) ([2]; male, CD-1, plasma, IV 2.0 mg/kg, read-out: IV AUC 0-t): 705 ng·h/mL | clearance ([2]; male, CD-1, plasma, IV 2.0 mg/kg, read-out: IV Cl): 47.4 mL/min/kg | half-life ([2]; male, CD-1, plasma, IV 2.0 mg/kg, read-out: IV T½ (converted)): 51 min | Cmax [2, 4]: 641 ng/mL | Tmax [2, 4]: 49.8 min | AUC(0-t) ([2]; male, CD-1, plasma, PO 10 mg/kg, read-out: PO AUC 0-t): 1160 ng·h/mL
SMILES: O=C(O)c1ccc(Oc2ccc3cc(OCc4c(-c5c(Cl)cccc5Cl)noc4C4CC4)ccc3c2)nc1 [Compound 1, 6-((6-((5-cyclopropyl-3-(2,6-dichlorophenyl)isoxazol-4-yl)methoxy)naphthalen-2-yl)oxy)nicotinic acid]
NAS score lowered as compared to the model group ([1]; 30 mg/kg PO QD 7 weeks): 42.9% | lowered cirrhosis percentage ([1]; 30 mg/kg PO QD 7 weeks): 28.0% | NAS score (FIG. 3) ([1]; 3, 10 and 30 mg/kg PO QD 7 weeks, all p<0.001): dose dependent decrease | progress of liver fibrosis (FIG. 4) ([1]; 3, 10 and 30 mg/kg PO QD 7 weeks, p<0.01): significantly inhibited | NAS score ([3]; 30 mg/kg PO QD 7 weeks): significantly decreases | decreased NAS score as compared with the model group ([3]; 30 mg/kg PO QD 7 weeks): 46.2% | lowered cirrhosis percentage ([3]; 30 mg/kg PO QD 7 weeks): 15.2% | hepatocyte steatosis (FIG. 1) ([3]; 3, 10 and 30 mg/kg PO QD 7 weeks, p<0.001): dose dependent decrease | progress of liver fibrosis (FIG. 2) ([3]; low (3 mg/kg) and high doses (30 mg/kg) PO QD 7 weeks): significantly inhibited
